Tests used:
Assay type in all cases: in vivo
[1] = tested on: ducksalad (Heteranthera limosa); assay: Test B flooded paddy test plant response
Method in brief: (§1)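 Compounds were added directly to paddy water over 2-leaf-stage plants in pots flooded 3 cm above soil, water depth maintained. Visual injury scored against controls after 13 to 15 days in greenhouse, 0 (none) to 100 (complete control); dash indicates no result.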

[2] = tested on: umbrella sedge (Cyperus difformis); assay: Test B flooded paddy test plant response
Method in brief: as §1

rice (Oryza sativa) = assay: Test B flooded paddy test plant response
Method in brief: as §1

[3] = tested on: barnyardgrass (Echinochloa crus-galli); assay: Test B flooded paddy test plant response
Method in brief: as §1

[4] = tested on: bermudagrass (Cynodon dactylon); assay: Test B pre-/postemergence plant response; conditions: Preemergence; for Bermudagrass plant response rating: 8 g ai/ha
Method in brief: (§2)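 Visual scoring from 0 (no effect) to 100 (complete control) against untreated controls was done 13 to 15 days after greenhouse treatment. Chemicals were formulated in a surfactant-containing non-phytotoxic solvent and applied to soil preemergence or to 1- to 4-leaf (2-18 cm) plants postemergence.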

[5] = tested on: cocklebur (Xanthium strumarium); assay: Test B pre-/postemergence plant response; conditions: Preemergence; for Cocklebur plant response rating: 8 g ai/ha
Method in brief: as §2

[6] = tested on: Italian ryegrass (Lolium multiflorum); assay: Test B pre-/postemergence plant response; conditions: Preemergence; for Ryegrass, Italian plant response rating: 8 g ai/ha
Method in brief: as §2

[7] = tested on: downy bromegrass (Bromus tectorum); assay: Test B pre-/postemergence plant response; conditions: Preemergence; for Bromegrass, Downy plant response rating: 8 g ai/ha
Method in brief: as §2

[8] = tested on: yellow nutsedge (Cyperus esculentus); assay: Test B pre-/postemergence plant response; conditions: Preemergence; for Nutsedge, Yellow plant response rating: 8 g ai/ha
Method in brief: as §2

[9] = tested on: woolly cupgrass (Eriochloa villosa); assay: Test B pre-/postemergence plant response; conditions: Preemergence; for Cupgrass, Woolly plant response rating: 8 g ai/ha
Method in brief: as §2

[10] = tested on: Russian thistle (Salsola iberica); assay: Test B pre-/postemergence plant response; conditions: Preemergence; for Russian Thistle plant response rating: 8 g ai/ha
Method in brief: as §2

[11] = tested on: velvetleaf (Abutilon theophrasti); assay: Test B pre-/postemergence plant response; conditions: Preemergence; for Velvetleaf plant response rating: 8 g ai/ha, scale 0 to 100
Method in brief: as §2

[12] = tested on: giant foxtail (Setaria faberii); assay: Test B pre-/postemergence plant response; conditions: Preemergence; for Foxtail, Giant plant response rating: 8 g ai/ha
Method in brief: as §2

corn (Zea mays) = assay: Test B pre-/postemergence plant response; conditions: Preemergence; for Corn plant response rating: 8 g ai/ha
Method in brief: as §2

[13] = Flood (flooded paddy test), 62 g ai/ha, scale 0 to 100, 0 no effect, 100 complete control
[14] = Flood (flooded paddy test), 125 g ai/ha, scale 0 to 100, 0 no effect, 100 complete control
[15] = Flood (flooded paddy test), 250 g ai/ha, scale 0 to 100, 0 no effect, 100 complete control
[16] = Flood, 31 g ai/ha, scale 0 to 100
[17] = scale 0 to 100 (0 no effect, 100 complete control)
[18] = 16 g ai/ha, scale 0 to 100 (0 no effect, 100 complete control)
[19] = 31 g ai/ha, 0 to 100 scale, 0 no effect, 100 complete control
[20] = 31 g ai/ha, scale 0 to 100 (0 no effect, 100 complete control)
[21] = 62 g ai/ha, 0 to 100 scale, 0 no effect, 100 complete control

Compound: Cc1ccc(-c2ccc(Cl)cc2)cc1-c1c(O)cnn(C)c1=O [Compound 46]
- Plant response rating, Ducksalad [1, 13]: 30
- Plant response rating, Ducksalad [1, 14]: 45
- Plant response rating, Ducksalad [1, 15]: 85
- Plant response rating, Sedge, Umbrella [2, 13]: 50
- Plant response rating, Sedge, Umbrella [2, 14]: 60
- Plant response rating, Sedge, Umbrella [2, 15]: 75
- Plant response rating, Sedge, Umbrella [2, 16]: 40
- Plant response rating, Rice (rice (Oryza sativa); [13]): 0
- Plant response rating, Rice (rice (Oryza sativa); [14]): 20
- Plant response rating, Rice (rice (Oryza sativa); [15]): 35
- Plant response rating, Rice (rice (Oryza sativa); [16]): 0
- Plant response rating, Barnyardgrass [3, 13]: 0
- Plant response rating, Barnyardgrass [3, 14]: 30
- Plant response rating, Barnyardgrass [3, 15]: 40
- Plant response rating, Barnyardgrass [3, 16]: 0
- Bermudagrass plant response rating [4, 17]: 0
- Plant response rating, Bermudagrass [4, 18]: 20
- Plant response rating, Bermudagrass [4, 19]: 85
- Plant response rating, Bermudagrass ([4]; 62 g ai/ha, scale 0 to 100): 100
- Plant response rating, Cocklebur [5, 18]: 0
- Plant response rating, Cocklebur [5, 19]: 0
- Plant response rating, Cocklebur ([5]; 62 g ai/ha, scale 0 to 100): 0
- Cocklebur plant response rating ([5]; scale 0 to 100): 0
- Plant response rating, Ryegrass, Italian [6, 18]: 10
- Plant response rating, Ryegrass, Italian [6, 20]: 40
- Plant response rating, Ryegrass, Italian ([6]; 62 g ai/ha, scale 0 to 100): 100
- Ryegrass, Italian plant response rating ([6]; scale 0 to 100): 0
- Plant response rating, Bromegrass, Downy [7, 18]: 0
- Plant response rating, Bromegrass, Downy [7, 19]: 0
- Plant response rating, Bromegrass, Downy ([7]; 62 g ai/ha, scale 0 to 100): 5
- Bromegrass, Downy plant response rating ([7]; scale 0 to 100): 0
- Plant response rating, Nutsedge, Yellow [8, 18]: 0
- Plant response rating, Nutsedge, Yellow [8, 20]: 0
- Plant response rating, Nutsedge, Yellow ([8]; 62 g ai/ha, scale 0 to 100): 0
- Nutsedge, Yellow plant response rating ([8]; scale 0 to 100): 0
- Plant response rating, Cupgrass, Woolly [9, 18]: 0
- Plant response rating, Cupgrass, Woolly [9, 19]: 85
- Plant response rating, Cupgrass, Woolly ([9]; 62 g ai/ha, scale 0 to 100): 98
- Cupgrass, Woolly plant response rating ([9]; scale 0 to 100): 0
- Plant response rating, Russian Thistle [10, 18]: 0
- Plant response rating, Russian Thistle [10, 20]: 0
- Plant response rating, Russian Thistle ([10]; 62 g ai/ha, scale 0 to 100): 0
- Russian Thistle plant response rating ([10]; scale 0 to 100): 0
- Plant response rating, Velvetleaf [11, 18]: 0
- Plant response rating, Velvetleaf [11, 20]: 0
- Plant response rating, Velvetleaf [11, 21]: 0
- Velvetleaf plant response rating [11]: 0
- Plant response rating, Foxtail, Giant [12, 18]: 15
- Plant response rating, Foxtail, Giant [12, 19]: 95
- Plant response rating, Foxtail, Giant ([12]; 62 g ai/ha, scale 0 to 100): 100
- Foxtail, Giant plant response rating ([12]; scale 0 to 100): 0
- Plant response rating, Corn (corn (Zea mays); [18]): 0
- Plant response rating, Corn (corn (Zea mays); [19]): 0
- Plant response rating, Corn (corn (Zea mays); 62 g ai/ha, scale 0 to 100): 0
- Corn plant response rating (corn (Zea mays); scale 0 to 100): 0

Compound: Cc1cc(-c2ccc(Cl)cc2)nn1-c1c(OS(=O)(=O)c2cccc3ccccc23)cnn(C)c1=O [Compound 47]
- Plant response rating, Ducksalad [1, 13]: 0
- Plant response rating, Ducksalad [1, 14]: 0
- Plant response rating, Ducksalad [1, 15]: 0
- Plant response rating, Ducksalad [1, 16]: 0
- Plant response rating, Sedge, Umbrella [2, 13]: 0
- Plant response rating, Sedge, Umbrella [2, 14]: 0
- Plant response rating, Sedge, Umbrella [2, 15]: 0
- Plant response rating, Sedge, Umbrella [2, 16]: 0
- Plant response rating, Rice (rice (Oryza sativa); [13]): 0
- Plant response rating, Rice (rice (Oryza sativa); [14]): 0
- Plant response rating, Rice (rice (Oryza sativa); [15]): 0
- Plant response rating, Rice (rice (Oryza sativa); [16]): 0
- Plant response rating, Barnyardgrass [3, 13]: 0
- Plant response rating, Barnyardgrass [3, 14]: 0
- Plant response rating, Barnyardgrass [3, 15]: 0
- Plant response rating, Barnyardgrass [3, 16]: 0
- Bermudagrass plant response rating [4, 17]: 60
- Plant response rating, Bermudagrass [4, 18]: 100
- Plant response rating, Bermudagrass [4, 19]: 100
- Plant response rating, Bermudagrass ([4]; 62 g ai/ha, scale 0 to 100): 100
- Plant response rating, Cocklebur [5, 18]: 0
- Plant response rating, Cocklebur [5, 19]: 0
- Plant response rating, Cocklebur ([5]; 62 g ai/ha, scale 0 to 100): 0
- Cocklebur plant response rating ([5]; scale 0 to 100): 0
- Plant response rating, Ryegrass, Italian [6, 18]: 80
- Plant response rating, Ryegrass, Italian [6, 20]: 90
- Plant response rating, Ryegrass, Italian ([6]; 62 g ai/ha, scale 0 to 100): 98
- Ryegrass, Italian plant response rating ([6]; scale 0 to 100): 0
- Plant response rating, Bromegrass, Downy [7, 18]: 0
- Plant response rating, Bromegrass, Downy [7, 19]: 0
- Plant response rating, Bromegrass, Downy ([7]; 62 g ai/ha, scale 0 to 100): 90
- Bromegrass, Downy plant response rating ([7]; scale 0 to 100): 0
- Plant response rating, Nutsedge, Yellow [8, 18]: 0
- Plant response rating, Nutsedge, Yellow [8, 20]: 0
- Plant response rating, Nutsedge, Yellow ([8]; 62 g ai/ha, scale 0 to 100): 0
- Nutsedge, Yellow plant response rating ([8]; scale 0 to 100): 0
- Plant response rating, Cupgrass, Woolly [9, 18]: 100
- Plant response rating, Cupgrass, Woolly [9, 19]: 100
- Plant response rating, Cupgrass, Woolly ([9]; 62 g ai/ha, scale 0 to 100): 100
- Cupgrass, Woolly plant response rating ([9]; scale 0 to 100): 98
- Plant response rating, Russian Thistle [10, 18]: 0
- Plant response rating, Russian Thistle [10, 20]: 0
- Plant response rating, Russian Thistle ([10]; 62 g ai/ha, scale 0 to 100): 40
- Russian Thistle plant response rating ([10]; scale 0 to 100): 0
- Plant response rating, Velvetleaf [11, 18]: 0
- Plant response rating, Velvetleaf [11, 20]: 0
- Plant response rating, Velvetleaf [11, 21]: 0
- Velvetleaf plant response rating [11]: 0
- Plant response rating, Foxtail, Giant [12, 18]: 98
- Plant response rating, Foxtail, Giant [12, 19]: 100
- Plant response rating, Foxtail, Giant ([12]; 62 g ai/ha, scale 0 to 100): 100
- Foxtail, Giant plant response rating ([12]; scale 0 to 100): 0
- Plant response rating, Corn (corn (Zea mays); [18]): 20
- Plant response rating, Corn (corn (Zea mays); [19]): 85
- Plant response rating, Corn (corn (Zea mays); 62 g ai/ha, scale 0 to 100): 95
- Corn plant response rating (corn (Zea mays); scale 0 to 100): 0

Compound: Cc1cc(-c2ccc(Cl)cc2)nn1-c1c(OS(=O)(=O)C(C)C)cnn(C)c1=O [Compound 50]
- Plant response rating, Ducksalad [1, 13]: 0
- Plant response rating, Ducksalad [1, 14]: 0
- Plant response rating, Ducksalad [1, 15]: 0
- Plant response rating, Ducksalad [1, 16]: 0
- Plant response rating, Sedge, Umbrella [2, 13]: 0
- Plant response rating, Sedge, Umbrella [2, 14]: 0
- Plant response rating, Sedge, Umbrella [2, 15]: 0
- Plant response rating, Sedge, Umbrella [2, 16]: 0
- Plant response rating, Rice (rice (Oryza sativa); [13]): 0
- Plant response rating, Rice (rice (Oryza sativa); [14]): 0
- Plant response rating, Rice (rice (Oryza sativa); [15]): 0
- Plant response rating, Rice (rice (Oryza sativa); [16]): 0
- Plant response rating, Barnyardgrass [3, 13]: 0
- Plant response rating, Barnyardgrass [3, 14]: 0
- Plant response rating, Barnyardgrass [3, 15]: 0
- Plant response rating, Barnyardgrass [3, 16]: 0
- Bermudagrass plant response rating [4, 17]: 90
- Plant response rating, Bermudagrass [4, 18]: 100
- Plant response rating, Bermudagrass [4, 19]: 100
- Plant response rating, Bermudagrass ([4]; 62 g ai/ha, scale 0 to 100): 100
- Plant response rating, Cocklebur [5, 18]: 0
- Plant response rating, Cocklebur [5, 19]: 0
- Plant response rating, Cocklebur ([5]; 62 g ai/ha, scale 0 to 100): 0
- Cocklebur plant response rating ([5]; scale 0 to 100): 0
- Plant response rating, Ryegrass, Italian [6, 18]: 0
- Plant response rating, Ryegrass, Italian [6, 20]: 5
- Plant response rating, Ryegrass, Italian ([6]; 62 g ai/ha, scale 0 to 100): 100
- Ryegrass, Italian plant response rating ([6]; scale 0 to 100): 0
- Plant response rating, Bromegrass, Downy [7, 18]: 0
- Plant response rating, Bromegrass, Downy [7, 19]: 0
- Plant response rating, Bromegrass, Downy ([7]; 62 g ai/ha, scale 0 to 100): 0
- Bromegrass, Downy plant response rating ([7]; scale 0 to 100): 0
- Plant response rating, Nutsedge, Yellow [8, 18]: 0
- Plant response rating, Nutsedge, Yellow [8, 20]: 0
- Plant response rating, Nutsedge, Yellow ([8]; 62 g ai/ha, scale 0 to 100): 0
- Nutsedge, Yellow plant response rating ([8]; scale 0 to 100): 0
- Plant response rating, Cupgrass, Woolly [9, 18]: 75
- Plant response rating, Cupgrass, Woolly [9, 19]: 98
- Plant response rating, Cupgrass, Woolly ([9]; 62 g ai/ha, scale 0 to 100): 100
- Cupgrass, Woolly plant response rating ([9]; scale 0 to 100): 20
- Plant response rating, Russian Thistle [10, 18]: 0
- Plant response rating, Russian Thistle [10, 20]: 0
- Plant response rating, Russian Thistle ([10]; 62 g ai/ha, scale 0 to 100): 0
- Russian Thistle plant response rating ([10]; scale 0 to 100): 0
- Plant response rating, Velvetleaf [11, 18]: 0
- Plant response rating, Velvetleaf [11, 20]: 0
- Plant response rating, Velvetleaf [11, 21]: 0
- Velvetleaf plant response rating [11]: 0
- Plant response rating, Foxtail, Giant [12, 18]: 98
- Plant response rating, Foxtail, Giant [12, 19]: 100
- Plant response rating, Foxtail, Giant ([12]; 62 g ai/ha, scale 0 to 100): 100
- Foxtail, Giant plant response rating ([12]; scale 0 to 100): 20
- Plant response rating, Corn (corn (Zea mays); [18]): 0
- Plant response rating, Corn (corn (Zea mays); 62 g ai/ha, scale 0 to 100): 90
- Corn plant response rating (corn (Zea mays); scale 0 to 100): 0
